Laboratory results from ChEMBL document CHEMBL1201862, “PubChem BioAssay data set” (2004).
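These data come from cells grown in 96-well plates and exposed to compound for 48 hours at five concentrations. At the GI50, growth is halved.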 The source made the active and inactive calls. Cut-off read from the data, not from the text of the source: active = GI50 up to about 1.1 µM and inactive = higher.

What was measured:
Test in all cases: DTP human tumour cell line panel, 48 h
HL-60 = test system: HL-60
HT-29 = test system: HT-29
SF-268 = test system: SF-268
A549 = test system: A549
KM-20L2 = test system: KM-20L2
K562 = test system: K562
HCC 2998 = test system: HCC 2998
U-251 = test system: U-251
SK-MEL-28 = test system: SK-MEL-28
OVCAR-3 = test system: OVCAR-3
OVCAR-4 = test system: OVCAR-4
RPMI-8226 = test system: RPMI-8226
M14 = test system: M14
CAKI-1 = test system: CAKI-1
OVCAR-8 = test system: OVCAR-8
NCI-H226 = test system: NCI-H226
Malme-3M = test system: Malme-3M
EKVX = test system: EKVX

Measured: GI50

CC(C)C(=O)/C=C/c1ccccc1
inactive: HL-60 42.3 µM | HT-29 53.5 µM | SF-268 > 100 µM | A549 > 100 µM | KM-20L2 36.1 µM | K562 33.7 µM | HCC 2998 > 100 µM | U-251 61.2 µM | SK-MEL-28 > 100 µM | OVCAR-3 31 µM | OVCAR-4 > 100 µM | RPMI-8226 37.1 µM | M14 > 100 µM

Cc1cc(Cl)ccc1NC(=O)C(=O)C(C(=O)c1ccccc1)C1OC(=O)c2ccccc21 (stereo unspecified)
inactive: HL-60 > 100 µM | HT-29 > 100 µM | SF-268 > 100 µM | A549 > 100 µM | KM-20L2 > 100 µM | K562 > 100 µM | HCC 2998 > 100 µM | U-251 > 100 µM | CAKI-1 > 100 µM | OVCAR-8 > 100 µM | NCI-H226 > 100 µM | SK-MEL-28 > 100 µM | Malme-3M > 100 µM | OVCAR-4 > 100 µM | RPMI-8226 > 100 µM | M14 > 100 µM | EKVX > 100 µM

O=C(/N=N/C(=O)OCc1ccccc1)OCc1ccccc1
inactive: HL-60 43.7 µM | HT-29 > 100 µM | SF-268 96.4 µM | A549 81.3 µM | KM-20L2 > 100 µM | K562 63.5 µM | HCC 2998 > 100 µM | U-251 83.8 µM | CAKI-1 49.8 µM | OVCAR-8 > 100 µM | Malme-3M > 100 µM | OVCAR-3 58.2 µM | OVCAR-4 66.1 µM | RPMI-8226 53.2 µM | M14 > 100 µM | EKVX > 100 µM

N#C/C(=C\c1ccc(O)cc1O)C(N)=O
inactive: HL-60 53.6 µM | HT-29 29.8 µM | SF-268 > 100 µM | A549 > 100 µM | KM-20L2 28.2 µM | K562 > 100 µM | HCC 2998 > 100 µM | U-251 > 100 µM | CAKI-1 58.1 µM | OVCAR-8 > 100 µM | NCI-H226 41.6 µM | SK-MEL-28 93.3 µM | Malme-3M 90.8 µM | OVCAR-3 > 100 µM | OVCAR-4 > 100 µM | RPMI-8226 55.6 µM | M14 82.2 µM | EKVX > 100 µM

COC(=O)/C=C/C1C(C(=O)OC)C2(C(=O)OC)CCC1(C(=O)OC)N2 (stereo unspecified)
inactive: HL-60 > 100 µM | HT-29 > 100 µM | SF-268 > 100 µM | A549 > 100 µM | KM-20L2 > 100 µM | K562 > 100 µM | HCC 2998 > 100 µM | U-251 > 100 µM | CAKI-1 > 100 µM | OVCAR-8 > 100 µM | NCI-H226 > 100 µM | Malme-3M > 100 µM | OVCAR-3 > 100 µM | OVCAR-4 > 100 µM | RPMI-8226 > 100 µM | M14 > 100 µM | EKVX > 100 µM

O=C(c1ccc(O)cc1)C1c2c3c(cc(O)c2C(c2ccc(O)cc2)C1c1cc(O)cc(O)c1)OC(c1ccc(O)cc1)C3c1cc2c(cc1O)OC(c1ccc(O)cc1)C2c1cc(O)cc(O)c1 (stereo unspecified)
inactive: HL-60 > 12.5 µM | SF-268 > 12.5 µM | A549 > 12.5 µM | KM-20L2 > 12.5 µM | K562 > 12.5 µM | HCC 2998 > 12.5 µM | U-251 > 12.5 µM | CAKI-1 > 12.5 µM | OVCAR-8 > 12.5 µM | NCI-H226 > 12.5 µM | SK-MEL-28 > 12.5 µM | Malme-3M > 12.5 µM | OVCAR-3 > 12.5 µM | OVCAR-4 > 12.5 µM | RPMI-8226 > 12.5 µM | M14 > 12.5 µM | EKVX > 12.5 µM

C=C1C(=O)OC2C1C(OC(=O)/C(C)=C\C)CC1(CO1)C1C(O)C=C(C)C21O (stereo unspecified)
inactive: HL-60 3.04 µM | HT-29 13 µM | SF-268 2.64 µM | A549 20.6 µM | KM-20L2 3.19 µM | K562 4.72 µM | HCC 2998 4.63 µM | U-251 12.2 µM | CAKI-1 2.04 µM | OVCAR-8 2.67 µM | SK-MEL-28 2.93 µM | Malme-3M 2.74 µM | OVCAR-3 3.77 µM | OVCAR-4 7.78 µM | RPMI-8226 4.56 µM | M14 2.63 µM | EKVX 12.8 µM

CCCc1ccc(/N=C\c2cc(OC)c(OC)c(OC)c2)cc1
inactive: HL-60 21.5 µM | HT-29 > 87.7 µM | SF-268 > 100 µM | A549 > 100 µM | KM-20L2 > 100 µM | K562 36 µM | U-251 > 100 µM | CAKI-1 > 100 µM | OVCAR-8 > 100 µM | NCI-H226 > 100 µM | SK-MEL-28 > 100 µM | Malme-3M > 100 µM | OVCAR-3 > 100 µM | OVCAR-4 > 100 µM | RPMI-8226 24.4 µM | M14 > 100 µM | EKVX > 100 µM

CCCCCCCCNC(=O)SCCCC
inactive: HL-60 18.8 µM | HT-29 20.8 µM | SF-268 34.9 µM | A549 33.9 µM | KM-20L2 33.3 µM | K562 34.4 µM | U-251 36.9 µM | CAKI-1 21.3 µM | OVCAR-8 33.8 µM | SK-MEL-28 38.2 µM | Malme-3M 23.1 µM | OVCAR-3 49.5 µM | OVCAR-4 36.7 µM | RPMI-8226 22.4 µM | M14 33.8 µM | EKVX 29.4 µM

COc1ccc2nc(NC(=O)C(=O)C(C#N)c3ccc(Cl)c(Cl)c3)sc2c1 (stereo unspecified)
inactive: HL-60 > 100 µM | HT-29 > 100 µM | SF-268 79.8 µM | A549 > 100 µM | KM-20L2 > 100 µM | K562 > 100 µM | U-251 > 100 µM | CAKI-1 > 100 µM | OVCAR-8 > 100 µM | NCI-H226 > 100 µM | SK-MEL-28 > 100 µM | Malme-3M > 100 µM | OVCAR-3 > 100 µM | OVCAR-4 > 100 µM | RPMI-8226 > 100 µM | M14 > 100 µM | EKVX 88.9 µM

COC(=O)[C@@H]1Cc2c([nH]c3ccccc23)[C@H](c2ccccc2)N1
inactive: HL-60 29.9 µM | HT-29 49.3 µM | SF-268 41.7 µM | A549 38.6 µM | KM-20L2 > 100 µM | K562 45.2 µM | HCC 2998 31.2 µM | U-251 47.8 µM | CAKI-1 60.5 µM | OVCAR-8 41.3 µM | NCI-H226 71.8 µM | SK-MEL-28 85.1 µM | Malme-3M 94 µM | OVCAR-3 31.6 µM | OVCAR-4 43.6 µM | M14 25.6 µM | EKVX 44.2 µM

CC(c1cccc2ccccc12)/[N+]([O-])=C/c1ccccc1 (stereo unspecified)
inactive: HL-60 99.5 µM | HT-29 > 100 µM | SF-268 > 100 µM | A549 > 100 µM | KM-20L2 > 100 µM | K562 > 100 µM | HCC 2998 > 100 µM | U-251 > 100 µM | OVCAR-8 > 100 µM | SK-MEL-28 > 100 µM | Malme-3M > 100 µM | OVCAR-3 > 100 µM | RPMI-8226 58.3 µM | EKVX 70.8 µM
